The results in this text go back to ChEMBL document CHEMBL5360568, “Synthesis and anti-Alzheimer potential of novel α-amino phosphonate derivatives and probing their molecular interaction mechanism with acetylcholinesterase” (Eur J Med Chem, 2023).

For series [1], the target named is Amyloid-beta precursor protein (Homo sapiens) (UniProt P05067). Kind of series: Modulation of amyloid beta (1 to 42) (unknown origin) self aggregation assessed as increase in fluorescence intensity at 0.03 to 0.1 uM incubated for 24 hrs by Thioflavin T fluorescence assay. Particulars: filed as modulator, dose 0.03-0.1 µM.
Chain of Amyloid-beta precursor protein (Homo sapiens) (P05067 whole entry): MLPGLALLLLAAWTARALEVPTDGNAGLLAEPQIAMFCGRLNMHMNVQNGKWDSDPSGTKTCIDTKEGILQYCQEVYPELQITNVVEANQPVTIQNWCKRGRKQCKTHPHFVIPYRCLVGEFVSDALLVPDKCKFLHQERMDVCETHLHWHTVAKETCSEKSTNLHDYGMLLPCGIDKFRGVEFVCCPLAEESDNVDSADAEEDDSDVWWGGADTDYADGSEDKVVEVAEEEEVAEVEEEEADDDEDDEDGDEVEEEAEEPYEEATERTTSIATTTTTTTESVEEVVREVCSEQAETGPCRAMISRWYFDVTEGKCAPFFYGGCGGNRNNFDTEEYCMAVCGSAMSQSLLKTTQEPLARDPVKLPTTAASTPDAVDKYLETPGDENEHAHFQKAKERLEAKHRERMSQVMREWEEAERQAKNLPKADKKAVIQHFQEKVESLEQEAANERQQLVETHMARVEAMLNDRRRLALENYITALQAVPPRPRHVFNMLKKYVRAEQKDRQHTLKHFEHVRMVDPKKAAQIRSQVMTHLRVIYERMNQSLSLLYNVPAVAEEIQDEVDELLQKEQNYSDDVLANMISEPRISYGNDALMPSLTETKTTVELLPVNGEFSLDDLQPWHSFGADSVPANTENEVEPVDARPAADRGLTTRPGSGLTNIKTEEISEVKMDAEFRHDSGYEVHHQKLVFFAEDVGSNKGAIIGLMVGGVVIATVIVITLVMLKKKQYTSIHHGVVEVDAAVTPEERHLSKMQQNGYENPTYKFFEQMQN
Series [2] in a line: Antioxidant activity assessed as ABTS radical scavenging activity incubated for 30 mins by spectrophotometric analysis. Format: functional.
Series [3] addresses T1, Acetylcholinesterase (Homo sapiens, UniProt P22303). Kind of series: Binding affinity to AChE (unknown origin) assessed as reduction in intrinsic fluorescence intensity at pH 7.2 at 0.001 to 0.009 mM incubated for 5 mins by fluorescence quenching analysis. The conditions noted are these: dose 0.001-0.009 mM.
Series [4] concerns the target T1, Acetylcholinesterase. In words: Inhibition of human erythrocyte AChE using acetylthiocholine iodide as substrate preincubated for 5 mins followed by substrate addition by DTNB based Ellman's method.
Series [5] addresses Cholinesterase (Equus caballus, UniProt P81908). In words: Inhibition of equine serum BuChE using butyrylthiocholine iodide as substrate preincubated for 5 mins followed by substrate addition by DTNB based Ellman's method. (In general: Ellman's reagent forms a yellow product with free thiols.)
Series [6] concerns the target T1, Acetylcholinesterase. In words: Binding affinity to AChE (unknown origin) assessed as static fluorescence quenching at pH 7.2 at 0.001 to 0.009 mM incubated for 5 mins by Stern-Volmer quenching plot based fluorescence spectroscopy. The conditions noted are these: dose 0.001-0.009 mM.
Series [7] concerns the target T2, Acetylcholinesterase (Electrophorus electricus, UniProt O42275). Kind of series: Mixed type inhibition of electric eel AChE using acetylthiocholine iodide as substrate assessed as inhibition constant of second plot of slope preincubated for 5 mins followed by substrate addition and measured after 5 mins by Ellman's method based double reciprocal Lineweaver-Burk plot analysis.

The target in series [8] is T2, Acetylcholinesterase. In words: Mixed type inhibition of electric eel AChE using acetylthiocholine iodide as substrate assessed as inhibition constant of second plot of intercept preincubated for 5 mins followed by substrate addition and measured after 5 mins by Ellman's method based double reciprocal Lineweaver-Burk plot analysis.
The target in series [9] is T1, Acetylcholinesterase. In words: Binding affinity to AChE (unknown origin) assessed as decrease in negative bands intensity towards the baseline at […] incubated for 5 mins by Circular dichroism analysis. The conditions noted are these: dose lower 0.001 nM. A general note: Circular dichroism is the unequal absorption of left and right circularly polarised light.

Series [10] deals with T1, Acetylcholinesterase. Kind of series: Binding affinity to AChE (unknown origin) assessed as gibbs free energy change at temperature of 298 K at 0.001 to 0.009 mM incubated for 5 mins by fluorescence quenching analysis. The conditions noted are these: dose 0.001-0.009 mM.
The nature of series [11]: Cytotoxicity against human SK-N-SH cells assessed as cell viability at 30 to 60 uM incubated for 24 hrs by MTT assay. Format: toxicity, cell-based. The conditions noted are these: dose 30-60 µM, read-out: Activity.
Series [12] relates to Supercoiled DNA. Kind of series: Induction of supercoiled pBR322 plasmid DNA (unknown origin) cleavage assessed as DNA nicking at 10 uM incubated for 2 hrs by Agarose gel electrophoresis analysis. It counts as nucleic-acid assay.
A short description of series [13]: Selectivity ratio, ratio of IC50 for inhibition of equine serum BuChE to IC50 for inhibition of electric eel AChE.
Series [14] concerns the target Amyloid-beta precursor protein (Homo sapiens) (UniProt P05067). Kind of series: Modulation of amyloid beta (1 to 42) (unknown origin) assembly assessed as morphological changes in amyloid beta (1 to 42) aggregates at 1 mM incubated for 3 days by FE-SEM image analysis relative to control. Particulars: filed as modulator, time 3.0 day.
The test system of series [15] is SK-N-SH. In words: Neuroprotective activity against H2O2 induced oxidative cell damage in human SK-N-SH cells assessed as increase in cell viability at 30 to 60 uM preincubated for 3 hrs followed by H2O2 stimulation for 2 hrs by MTT assay (Rvb= 40%). It counts as functional, cell-based. Particulars: dose 30-60 µM. On the technique in general: Tetrazolium assays rely on reduction of a dye to a coloured formazan, in cell work by metabolically active cells.

Series [16] concerns SK-N-SH. Kind of series: Neuroprotective activity against H2O2 induced oxidative cell damage in human SK-N-SH cells assessed as increase in cell viability at 90 uM preincubated for 3 hrs followed by H2O2 stimulation for 2 hrs by MTT assay (Rvb= 40%). It counts as functional.
The target in series [17] is T2, Acetylcholinesterase. In words: Inhibition of electric eel AChE using acetylthiocholine iodide as substrate preincubated for 5 mins followed by substrate addition by DTNB based Ellman's method.
For series [18], the target named is Acetylcholinesterase (Electrophorus electricus) (UniProt O42275). Kind of series: Mixed type inhibition of electric eel AChE using acetylthiocholine iodide as substrate assessed as decrease in Vmax and increase in Km preincubated for 5 mins followed by substrate addition and measured after 5 mins by Ellman's method based double reciprocal Lineweaver-Burk plot analysis. Particulars: time 10.0 min.
Chain of Acetylcholinesterase (Electrophorus electricus) (O42275 24-633 limits assumed): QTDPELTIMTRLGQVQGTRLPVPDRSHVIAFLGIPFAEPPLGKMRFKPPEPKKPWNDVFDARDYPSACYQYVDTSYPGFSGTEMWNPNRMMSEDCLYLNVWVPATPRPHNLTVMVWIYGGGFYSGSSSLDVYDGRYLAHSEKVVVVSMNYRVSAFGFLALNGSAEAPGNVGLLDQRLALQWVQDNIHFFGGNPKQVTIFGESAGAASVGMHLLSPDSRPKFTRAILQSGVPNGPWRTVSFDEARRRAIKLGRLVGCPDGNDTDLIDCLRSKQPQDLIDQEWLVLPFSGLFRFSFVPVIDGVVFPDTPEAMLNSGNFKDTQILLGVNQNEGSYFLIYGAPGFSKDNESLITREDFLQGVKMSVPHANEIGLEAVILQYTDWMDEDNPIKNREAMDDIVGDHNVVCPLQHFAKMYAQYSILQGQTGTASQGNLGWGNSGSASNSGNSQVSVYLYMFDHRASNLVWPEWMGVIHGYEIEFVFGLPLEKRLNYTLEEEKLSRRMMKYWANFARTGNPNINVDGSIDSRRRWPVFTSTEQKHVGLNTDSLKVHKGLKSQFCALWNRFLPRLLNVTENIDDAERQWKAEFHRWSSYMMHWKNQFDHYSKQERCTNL

Activity calls are given as the source filed them. The calls are words filed in the database; no cut-off is given here. Bounds are passed on as bounds.

T2 sequence (O42275 whole entry): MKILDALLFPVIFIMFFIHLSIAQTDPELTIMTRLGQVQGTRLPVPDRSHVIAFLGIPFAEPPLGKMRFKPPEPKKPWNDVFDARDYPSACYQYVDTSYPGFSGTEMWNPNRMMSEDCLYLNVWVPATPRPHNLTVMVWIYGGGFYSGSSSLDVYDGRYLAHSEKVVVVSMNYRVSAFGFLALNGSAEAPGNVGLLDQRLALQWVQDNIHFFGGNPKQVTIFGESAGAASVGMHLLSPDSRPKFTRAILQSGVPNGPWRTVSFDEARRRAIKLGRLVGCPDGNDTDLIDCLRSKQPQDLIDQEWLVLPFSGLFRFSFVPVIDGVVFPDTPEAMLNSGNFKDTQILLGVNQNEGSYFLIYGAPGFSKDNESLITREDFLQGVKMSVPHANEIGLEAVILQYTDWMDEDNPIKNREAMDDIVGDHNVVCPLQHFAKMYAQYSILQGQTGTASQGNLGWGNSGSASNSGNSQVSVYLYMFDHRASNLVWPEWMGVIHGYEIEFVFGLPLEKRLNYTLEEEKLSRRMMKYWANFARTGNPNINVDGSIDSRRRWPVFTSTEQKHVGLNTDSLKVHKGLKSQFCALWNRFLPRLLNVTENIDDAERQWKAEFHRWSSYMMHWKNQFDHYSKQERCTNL
T1 sequence (P22303 whole entry): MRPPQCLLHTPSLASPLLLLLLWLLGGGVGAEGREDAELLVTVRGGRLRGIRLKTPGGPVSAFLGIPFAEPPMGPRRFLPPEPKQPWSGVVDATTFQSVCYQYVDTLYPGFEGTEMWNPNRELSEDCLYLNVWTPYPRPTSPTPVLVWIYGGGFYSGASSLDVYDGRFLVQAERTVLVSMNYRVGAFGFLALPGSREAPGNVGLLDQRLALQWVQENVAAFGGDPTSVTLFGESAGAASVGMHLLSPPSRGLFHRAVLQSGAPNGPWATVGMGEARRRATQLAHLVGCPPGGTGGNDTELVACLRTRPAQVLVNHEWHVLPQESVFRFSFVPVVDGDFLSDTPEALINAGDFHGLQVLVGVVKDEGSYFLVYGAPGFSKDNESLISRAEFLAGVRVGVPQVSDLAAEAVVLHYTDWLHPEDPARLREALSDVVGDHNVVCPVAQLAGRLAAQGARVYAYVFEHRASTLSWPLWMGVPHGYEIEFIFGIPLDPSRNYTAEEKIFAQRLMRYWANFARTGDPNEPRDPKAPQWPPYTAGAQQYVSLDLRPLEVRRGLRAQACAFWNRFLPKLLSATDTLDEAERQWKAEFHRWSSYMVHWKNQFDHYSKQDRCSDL
Chain of Cholinesterase (P81908 whole entry): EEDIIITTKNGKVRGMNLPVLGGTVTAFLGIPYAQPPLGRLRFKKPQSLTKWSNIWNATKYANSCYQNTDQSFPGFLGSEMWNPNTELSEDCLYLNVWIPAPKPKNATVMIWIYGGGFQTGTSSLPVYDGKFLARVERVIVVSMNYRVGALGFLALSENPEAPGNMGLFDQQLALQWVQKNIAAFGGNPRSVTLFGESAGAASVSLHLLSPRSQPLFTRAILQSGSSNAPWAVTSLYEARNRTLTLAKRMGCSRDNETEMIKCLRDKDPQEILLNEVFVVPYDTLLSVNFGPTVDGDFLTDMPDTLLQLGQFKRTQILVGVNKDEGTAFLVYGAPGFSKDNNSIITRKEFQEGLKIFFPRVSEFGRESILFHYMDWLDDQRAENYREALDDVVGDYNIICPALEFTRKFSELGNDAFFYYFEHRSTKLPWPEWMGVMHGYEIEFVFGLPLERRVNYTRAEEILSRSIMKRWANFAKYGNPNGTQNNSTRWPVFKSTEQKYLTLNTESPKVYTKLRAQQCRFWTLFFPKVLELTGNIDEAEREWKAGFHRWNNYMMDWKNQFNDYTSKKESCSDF

By IC50 is commonly meant the point on the concentration scale where inhibition reaches its midpoint. In general, Ki refers to a measure of affinity in units of concentration, obtained from inhibition or displacement. As for `CCOP(=O)(OCC)C(Nc1ccc(C(=O)O)cc1)c1ccc(OCc2nc3ccccc3c(=O)n2-c2ccc(F)cc2)c(OC)c1` (stereo not drawn), the outcome in series [1], in series [6], in series [14] and in series [15] was Active. Further, the IC50 in series [2] worked out at 30.1 µM; in [4] it was 1.16 µM; in [5], 20.2 µM; in series [17] it was 0.289 µM. The Activity entry is “Dose-Dependent Effect” in [3], “Dose-Dependent Effect” in series [9] and 65% in series [16]. Besides, the results for the Ki in [7] and in [8] were 0.297 µM and 0.292 µM, respectively. In series [10], the deltaG was -31.5 kJ/mol. The viability at 24 h, up to 60 µM in [11] was more than 90%. In addition, the outcome in series [12] was inactive. The Ratio IC50 in series [13] was 70.1. Moreover, the inhibition result in series [18] was “Active”.
